Measurements published in patent US4633014A, “Substituted 3-hydrazinopropionates” (priority 1983, dated 1986).
Structures can show the parent of a compound that is named as a salt.

Assays:
[1] = tested on: white mice; experiment: in vivo
Procedure: (§1) The study of the effect provided by the compounds according to the present invention on the cardio-vascular system was carried out in experiments on white mice. The specific (antiarrhythmic) effect and acute toxicity were studied.
(§2) The acute toxicity of the compounds according to the present invention was determined in experiments on white mice with a mass of 20-25 g. The test compounds were administered intraperitoneally in the form of aqueous solutions or suspensions in Twin-80. Observation over the test animals was effected for 10 days.

[2] = in vivo; conditions: mouse, in vivo, ip
Procedure: as §1, §2

[3] = tested on: arrhythmia induced by an intravenous administration of calcium chloride; experiment: Antiarrhythmic activity on a model of arrhythmia induced by intravenous calcium chloride (antagonism to calcium) in mice; assay type: in vivo; conditions: white mice, 20-40 minutes before
Procedure: The specific (antiarrhythmic) effect and acute toxicity were studied.
The antiarrhythmic activity of the compounds according to the present invention was studied on a model of arrhythmia induced by an intravenous administration of calcium chloride. In experiments on white mice of both sexes with a mass of 18-25 g narcotized by urethane (1,200 mg/kg intraperitoneally) ECG in the second standard lead was recorded. A 2% solution of calcium chloride was introduced into the tail vein at a constant rate (0.01 ml for 2 sec). The dose of calcium chloride causing arrhythmia and the dose causing the heart arrest were determined. In the test groups the test compounds were administered intraperitoneally 20-40 minutes before the beginning of the experiment.

[4] = white mice, intraperitoneal, relative to quinidine

SMILES | Relative toxisity to quinidine [1, 4] | LD50 at 240 h [2] | Dose of calcium chloride causing arrythmia in animals under experiment ([3]; intraperitoneal dose 5 mg/kg) | Dose of calcium chloride causing death in animals under experiment ([3]; intraperitoneal dose 5 mg/kg) | Dose of calcium chloride causing arrythmia in animals under experiment ([3]; intraperitoneal dose 15 mg/kg) | Dose of calcium chloride causing death in animals under experiment ([3]; intraperitoneal dose 15 mg/kg) | Relative toxisity to quinidine ([1]; mouse, in vivo, ip, 14400 min)
COC(=O)C(C)CN(C(=O)c1ccc(Br)cc1)N(C)C (stereo not drawn) [I-41] | 15,5 | 2430 mg/kg | 90,6 mg/kg | 110,0 mg/kg | 102,5 mg/kg | 122,0 mg/kg | –
CCOC(=O)CCN(C(C)=O)N(C)C [I-42, 3-(2,2-dimethyl-1-acetylhydrazino)ethylpropionate] | – | 2380 mg/kg | 87,5 mg/kg | 112,0 mg/kg | 103,0 mg/kg | 115,0 mg/kg | 15,2
CCCCCC(=O)N(CCC(=O)OCC)N(C)C [I-43, 3-(2,2-dimethyl-1-hexanoylhydrazino)ethylpropionate] | – | 1460 mg/kg | 94,0 mg/kg | 105,0 mg/kg | 108,5 mg/kg | 120,3 mg/kg | 9,3
CCOC(=O)CCN(C(=O)c1ccccc1)N(C)C [I-44, 3-(2,2-dimethyl-1-benzoylhydrazino)ethylpropionate] | – | 1650 mg/kg | 101,0 mg/kg | 120,0 mg/kg | 98,5 mg/kg | 126,0 mg/kg | 10,5
CCOC(=O)CCN(C(=O)c1ccccc1F)N(C)C [I-45, 3-/2,2-dimethyl-1-(2'-fluorobenzoyl)-hydrazino/ethylpropionate] | – | 1480 mg/kg | 95,0 mg/kg | 112,5 mg/kg | 102,8 mg/kg | 125,0 mg/kg | 9,4
CCOC(=O)CCN(C(=O)c1ccc(Br)cc1)N(C)C [I-46, 3-/2,2-dimethyl-1-(4'-bromobenzoyl)hydrazino/ethylpropionate] | – | 1500 mg/kg | 98,0 mg/kg | 105,0 mg/kg | 100,0 mg/kg | 118,3 mg/kg | 9,6
CC(=O)N(CCC(N)=O)N(C)C [I-47, 3-(2,2-dimethyl-1-acetylhydrazino)propionamide] | – | > 3000 mg/kg | 103 mg/kg | 118 mg/kg | 108 mg/kg | 125 mg/kg | > 19,2
CCCC(=O)N(CCC(N)=O)N(C)C [I-48, 3-(2,2-dimethyl-1-butyrylhydrazino)propionamide] | – | 1700 mg/kg | 88 mg/kg | 101,8 mg/kg | 95,3 mg/kg | 109 mg/kg | 10,9
CCCCCC(=O)N(CCC(N)=O)N(C)C [I-49, 3-(2,2-dimethyl-1-hexanoylhydrazino)propionamide] | – | 960 mg/kg | 101,3 mg/kg | 120,5 mg/kg | 108,6 mg/kg | 136,8 mg/kg | 6,1
CCCCCCCCCCCCCCCCCC(=O)N(CCC(N)=O)N(C)C [I-50, 3-(2,2-dimethyl-1-octadecanoylhydrazino)propionamide] | – | > 3000 mg/kg | 102,4 mg/kg | 118,0 mg/kg | 118,6 mg/kg | 142,5 mg/kg | > 19,2
CN(C)N(CCC(N)=O)C(=O)c1ccccc1 [I-51, 3-(2,2-dimethyl-1-benzoylhydrazino)propionamide] | – | 3150 mg/kg | 88,7 mg/kg | 105,5 mg/kg | 93,5 mg/kg | 112,0 mg/kg | 20,1
CN(C)N(CCC(N)=O)C(=O)CCO [I-52, 3-(2,2-dimethyl-1-γ-hydroxypropanoylhydrazino)propionamide] | – | > 3000 mg/kg | 93 mg/kg | 112,0 mg/kg | 97,6 mg/kg | 123,6 mg/kg | > 19,2
COC(=O)N(CCC(N)=O)N(C)C [I-53, 3-(2,2-dimethyl-1methoxycarbonylhydrazino)propionamide] | 12,0 | 1880 mg/kg | 98,5 mg/kg | 132,0 mg/kg | 121,0 mg/kg | 138,5 mg/kg | –
CN(C)N(CCC#N)C(=O)c1ccccc1 [I-54, 3-(2,2-dimethyl-1-benzoylhydrazino)propionitrile] | – | 1030 mg/kg | 108,3 mg/kg | 130,0 mg/kg | 102,5 mg/kg | 133,0 mg/kg | 6,6
CNC(=O)N(C(CC(=O)OC)C(=O)OC)N(C)C (stereo not drawn) [I-55] | – | 2300 mg/kg | 88,7 mg/kg | 112,5 mg/kg | 111,5 mg/kg | 135,0 mg/kg | 14,7
COC(=O)CC(C(=O)OC)N(C(=O)Nc1ccccc1)N(C)C (stereo not drawn) [I-56] | – | 3200 mg/kg | 92,4 mg/kg | 108,5 mg/kg | 102,0 mg/kg | 128,0 mg/kg | 20,5
COC(=O)CC(C(=O)OC)N(C(=O)NCCCCCCNC(=O)N(C(CC(=O)OC)C(=O)OC)N(C)C)N(C)C (stereo not drawn) [I-57, 3-(2,2-dimethyl-1-/ε-(2-dimethylamino-2-dimethylsuccinato-2'-ylureido-1-yl)hexylcarbamoyl/hydrazino)-2-methoxycarbonylmethylpropionate] | – | > 3000 mg/kg | 103,5 mg/kg | 115,0 mg/kg | 132,6 mg/kg | 150,0 mg/kg | > 19,2
COC(=O)CC(C(=O)OC)N(C(=O)c1ccccc1)N(C)C (stereo not drawn) [I-58, 3-(2,2-dimethyl-1-benzoylhydrazino)-3-methoxycarbonyl-methylpropionate] | – | > 3000 mg/kg | 97,0 mg/kg | 112,0 mg/kg | 100,5 mg/kg | 118,5 mg/kg | > 19,2
CNC(=S)N(CCC(=O)O)N(C)C [I-59, Sodium salt of 3-(2,2-dimethyl-1-methylthiocarbamoylhydrazino)propionate] | – | 1800 mg/kg | 93,4 mg/kg | 108,6 mg/kg | 112,5 mg/kg | 130,0 mg/kg | 11,5
CCCCCCCCOC(=O)CCN(C(=S)Nc1ccccc1)N(C)C [I-60, 3-(2,2-dimethyl-1-phenylthiocarbamoylhydrazino)octylpropionate] | – | 2420 mg/kg | 90,8 mg/kg | 132,5 mg/kg | 107,5 mg/kg | 130,8 mg/kg | 15,5
CN(C)N(CCC#N)C(=O)Nc1ccccc1 [I-61, 3-(2,2-dimethyl-1-phenylcarbamoylhydrazino)propionitrile] | – | 1250 mg/kg | 105,0 mg/kg | 128,8 mg/kg | 102,6 mg/kg | 130,0 mg/kg | 8,0
